Measured values from patent publication US6991809B2, “Particles with improved solubilization capacity” (Lyotropic Therapeutics, Inc., priority 2001, dated 2006).

What was measured:
[1] = Solubilizing paclitaxel in GRAS essential oils; type: physicochemical
[2] = Solubility of paclitaxel in eugenol and in egg phosphatidylcholine/eugenol/water mixture; type: physicochemical
From the text: The solubility of a given active in a mixture of hydrophobe and lipid is typically a very strongly increasing function of an increasing hydrophobe:lipid ratio, because the hydrophobe can generally be chosen specifically for its ability to solubilize the particular active whereas the choice of lipid has much more to do with its ability to form liquid crystals (in the presence of the hydrophobe, in particular).

CC(=O)O[C@H]1C(=O)[C@@]2(C)[C@H]([C@H](OC(=O)c3ccccc3)[C@]3(O)C[C@H](OC(=O)[C@H](O)[C@@H](NC(=O)c4ccccc4)c4ccccc4)C(C)=C1C3(C)C)[C@]1(OC(C)=O)CO[C@@H]1C[C@@H]2O [Paclitaxel]
Paclitaxel solubility (w/w, approx) ([1]; in essential oil: Oil of bay): ~16% w/w
Paclitaxel solubility (w/w, approx) ([1]; in essential oil: Sweet basil): ~7% w/w
Paclitaxel solubility (w/w, approx) ([1]; in essential oil: Thyme): ~10% w/w
solubility in lipid/eugenol/water mixture ([2]; in a mixture of 42% egg phosphatidylcholine, 35% eugenol, and 23% water): less than 1.5%
solubility in eugenol ([2]; in eugenol): over 15 % by weight
